# Reference: paper PMC7710018, “Restoration of motor learning in a mouse model of Rett syndrome following long-term treatment with a novel small-molecule activator of TrkB” (Disease Models & Mechanisms, 2020)
# Experiments:
# [1] = Body weight / tolerability on chronic intermittent dosing; assay type: in vivo; settings: 8 weeks
# Source text: In light of evidence that deficits in BDNF expression and TrkB signaling contribute to neurological dysfunction in mouse models of RTT ([Katz, 2014]), we next examined whether or not chronic treatment of Mecp2 mutant mice with PTX-BD4-3 would ameliorate disease phenotypes. For these studies, we used heterozygous (Het) female Mecp2 mutants, which, unlike male null mice, model the somatic mosaicism for normal and mutant MeCP2 that characterizes the human disease ([Katz et al., 2012]). Animals were treated once every 3 days (5 mg/kg, i.p.), beginning at 16 weeks of age, and neurological phenotypes were assessed at various time points up to 8 weeks of dosing. All tests were performed 24 h after the last treatment. Phenotypic assessments included whole-body plethysmography to quantify apneic breathing, a core feature of respiratory dysfunction in RTT, as well as a motor test battery.
# Figure S2. Repeated dosing with PTX-BD4-3 (5 mg/kg, q72 hrs) had no
# effect on body weight in either Wt or Het mice.
# Initial Week 2 Week 4 Week 6 Week 8
# Body weight (g) Wt Saline Wt BD4‐3
# Disease Models & Mechanisms: doi:10.1242/dmm.044685: Supplementary information
# Disease Models & Mechanisms • Supplementary information […]
# AKT = experiment: In vivo TrkB signaling, western blot of hippocampus and mPFC; set-up: species or system mouse; settings: male Mecp2 null mice, 50 mg/kg i.p. once daily 5 days, 1 h after last injection, vs saline
# Protocol: (§1) Animals were given either single or repeated doses of PTX-BD4-3 (50 mg/kg, i.p.) or vehicle (saline) and then sacrificed for tissue harvesting and western blot analysis of phosphorylated and total TrkB (pTrkB/TrkB), AKT (also known as AKT1) (pAKT/AKT) and ERK (also known as MAPK) (pERK/ERK), respectively, in the hippocampus and medial prefrontal cortex (mPFC).
# (§2) Fig. 4. PTX-BD4-3 activates TrkB signaling in vivo following systemic administration in null male Mecp2 mutant mice. Null mice were treated for 5 days with once daily injections of PTX-BD4-3 (open bars, 50 mg/kg, i.p.) or saline (black bars, vehicle) and then sacrificed 1 h after the last injection. Brain lysates from the hippocampus and medial prefrontal cortex (mPFC) were processed for western blot analysis of phosphorylated and total TrkB (pTrkB^Y817/TrkB), AKT (pAKT/AKT) and ERK (pERK/ERK) as described in the Materials and Methods. For detection of total TrkB, AKT and ERK, blots were concomitantly probed with the respective total protein antibodies and each of the three bands quantitated as indicated by arrows. For ERK, the pair of bands (consistent with ERK1 and ERK2 isoforms) indicated by the brackets was quantitated together as one value. For each tissue, the same blot and images for total protein (TrkB, AKT, ERK, actin) are shown here in triplicate as an adjacent reference to phospho-protein detection. For detection of phospho-proteins in the hippocampus, blots were probed separately with the three indicated phospho antibodies. For detection in the mPFC, blots were probed separately for pTrkB and probed for pAKT and pERK concomitantly; and for the latter two, the same blot and image are shown here in duplicate as an adjacent reference to phospho-protein detection. ^§P<0.01 (compared to vehicle); *P<0.05 (compared to vehicle); Student's t-test.
# (§3) Frozen tissues were lysed in RIPA lysis buffer (150 mM NaCl, 50 mM Tris, pH 7.4, 1 mM EDTA, 1% Triton X-100 or 1% NP40, 10% glycerol, 1 mM phenylmethylsulfonyl fluoride, Na3VO4 and protease inhibitor cocktail). Lysates were mixed with 4× NuPAGE LDS loading buffer and dithiothreitol, and 50 μg protein was loaded per lane on a NuPAGE 4-12% Bis-Tris gradient gel and transferred to polyvinylidene difluoride membrane (run at 100 V for 1.5 h). […]
# ERK = experiment: as above; set-up: species or system mouse; settings: male Mecp2 null mice, 50 mg/kg i.p. once daily 5 days, 1 h after last injection, vs saline
# Protocol: as §1, §2, §3
# TrkB = experiment: as above; set-up: species or system mouse; settings: male Mecp2 null mice, vs saline
# Protocol: as §1, §2, §3
# [2] = tested on: heterozygous (Het) female Mecp2 mutant mice; experiment: Phenotype severity score; assay type: in vivo, mouse; settings: for group average phenotype severity score: 5 mg/kg q72 hrs
# Protocol: Group Pre‐Treatment Week 2 Week 4 Week 6 Week 8
# Table S3. Group average bi-weekly phenotype severity scores after repeated dosing with PTX-BD4-3 (5 mg/kg, q72 hrs). Animals were assigned aggregate scores of phenotypic severity based on visual assessments of mobility, hind limb clasping, gait analysis, tremors, respiration and overall physical condition (scoring range = 0-12; Guy et al., 2007). The phenotype severity scores of Het animals […]
# (also on this page, place not known: tr eatment Disease Models & Mechanisms: doi:10.1242/dmm.044685: Supplementary information Disease Models & Mechanisms • Supplementary information) […]
# [3] = tested on: 3T3 parent line, which does not express Trk receptors; experiment: NIH-3T3 cell survival; assay type: cell-based, mouse; settings: serum-free medium
structure (smiles),measurement,setting,value
"COCCN(C)C(=O)c1cc(C(=O)N(C)CCOC)cc(C(=O)N(C)CCOC)c1 [PTX-BD4-3, benzene-1,3,5-tricarboxylic acid tris-[(2-methoxy-ethyl)-methyl-amide]]",tolerability of chronic intermittent dosing,[1]; 5 mg/kg i.p. q72 h,well tolerated
same,body weight,"[1]; Het mice, 5 mg/kg q72 h, vs saline-treated Het littermates",unchanged
same,pAKT/AKT,AKT,significantly increased
same,pERK/ERK,ERK,no significant effect
same,pTrkB/TrkB,"TrkB; 50 mg/kg i.p. once daily 5 days, 1 h after last injection, hippocampus and mPFC",significantly increased
same,"expression of total TrkB, AKT or ERK",TrkB; 50 mg/kg i.p.,No differences
same,change of global phenotypic severity scores over the time course,"[2]; 5 mg/kg q72 h, pre-treatment vs 8 weeks",did not increase significantly
same,group average phenotype severity score,"[2]; Week 2, scoring range 0-12, pre-treatment 2.73",3.46
same,group average phenotype severity score,"[2]; Week 4, scoring range 0-12",3.66
same,group average phenotype severity score,"[2]; Week 6, scoring range 0-12",4.33
same,group average phenotype severity score,"[2]; Week 8, scoring range 0-12",3.66
same,survival of the 3T3 parent line,[3],did not support survival
